Test results: the supplement of paper PMC10307832

Legend:
Assay in all cases: relative viability (nuclei count vs DMSO), 5 days (fraction); higher = more cells survive
[1] = compound: C1CN(CCC1C(C2=CC3=C(C=C2)OCO3)(C4=CC5=C(C=C4)OCO5)O)C(=O)OC6=CC=C(C=C6)[N+](=O)[O-] [JZL-184]
In short: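 Viability was read as treated-well nuclei divided by vehicle-well nuclei, using the median across plates. Lung cancer cell lines in 1536-well plates were kept overnight at 37 °C, pinned with five √10-spaced library-drug doses, and after 5 days were Hoechst-stained, imaged at 4× and counted in MetaXpress. Plates passed only with control CV below 25% and at least one doubling.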

[2] = compound: C1CN(CCC1C(C2=CC3=C(C=C2)OCO3)(C4=CC5=C(C=C4)OCO5)O)C(=O)OC6=CC=C(C=C6)[N+](=O)[O-] [JZL-184] + CCNC(=O)c1noc(-c2cc(C(C)C)c(O)cc2O)c1-c1ccc(CN2CCOCC2)cc1 [Luminespib] (partner 0.01 µM)
In short: (§1)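 A single step with final 0.05% Triton X-100, 1% formaldehyde and 1 ug/ml Hoechst fixed the cells and stained nuclei 5 days after treatment. Lung cancer cell lines in 1536-well plates had been treated by pin tool the day after seeding with one drug alone or a fixed anchor-drug dose plus five library-drug doses (not always all listed) in √10 steps, and nuclei were counted on 4× images. Relative viability is the ratio of nuclei in treated wells to nuclei in vehicle wells, taken as the median of duplicate plates.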

[3] = compound: C1CN(CCC1C(C2=CC3=C(C=C2)OCO3)(C4=CC5=C(C=C4)OCO5)O)C(=O)OC6=CC=C(C=C6)[N+](=O)[O-] [JZL-184] + C[C@@H](Oc1cc(-c2cnn(C3CCNCC3)c2)cnc1N)c1c(Cl)ccc(F)c1Cl [Crizotinib] (partner 1 µM)
In short: as §1

[4] = compound: C1CN(CCC1C(C2=CC3=C(C=C2)OCO3)(C4=CC5=C(C=C4)OCO5)O)C(=O)OC6=CC=C(C=C6)[N+](=O)[O-] [JZL-184] + C[C@]1(O)C[C@@H](c2nc(-c3ccc4ccc(-c5ccccc5)nc4c3)c3c(N)nccn32)C1 [Linsitinib] (partner 1 µM)
In short: as §1

[5] = compound: C1CN(CCC1C(C2=CC3=C(C=C2)OCO3)(C4=CC5=C(C=C4)OCO5)O)C(=O)OC6=CC=C(C=C6)[N+](=O)[O-] [JZL-184] + O=C(CCCCCCC(=O)Nc1ccccc1)NO [Vorinostat] (partner 1 µM)
In short: as §1

Cell Line	relative viability ([1]; 0.04 µM)	relative viability ([1]; 0.4 µM)	relative viability ([1]; 1.265 µM)	relative viability ([1]; 4 µM)	relative viability ([2]; first compound 0.04 µM)	relative viability ([2]; first compound 0.4 µM)	relative viability ([2]; first compound 1.265 µM)	relative viability ([2]; first compound 4 µM)	relative viability ([3]; first compound 0.04 µM)	relative viability ([3]; first compound 0.4 µM)	relative viability ([3]; first compound 1.265 µM)	relative viability ([3]; first compound 4 µM)	relative viability ([4]; first compound 0.04 µM)	relative viability ([4]; first compound 0.4 µM)	relative viability ([4]; first compound 1.265 µM)	relative viability ([4]; first compound 4 µM)	relative viability ([5]; first compound 0.04 µM)	relative viability ([5]; first compound 0.4 µM)	relative viability ([5]; first compound 1.265 µM)	relative viability ([5]; first compound 4 µM)
201T	0.997	0.992	1.01	0.953	1.05	1.05	1.04	1.03	1.06	1.03	1.01	1.01	1.03	1.01	1.05	1.02	0.995	0.983	1.01	0.902
A549	1.1	0.928	1.01	0.957	–	–	–	–	0.609	0.765	0.68	0.699	0.559	0.457	0.519	0.633	–	–	–	–
A-427	1.09	0.982	1.12	0.948	1.14	0.79	1.11	0.972	1.03	0.907	0.914	0.77	1.15	1.17	1.18	1.1	0.871	0.829	0.83	0.754
ABC-1	0.868	0.901	1.09	1.15	1.23	0.557	0.628	0.495	1.35	0.925	1.33	1.21	0.988	0.821	0.812	0.756	1.59	0.961	1.42	0.929
BEN	1.1	0.949	1.21	1.01	0.421	0.318	0.67	0.281	1	0.87	1.02	0.861	1.19	0.881	0.995	0.995	0.538	0.524	0.538	0.594
CAL-12T	1.23	0.856	1.13	0.949	0.478	0.449	0.849	0.395	0.993	0.607	0.621	0.497	1.06	0.775	0.828	0.75	0.86	0.805	0.88	0.717
COR-L23	1.2	1.06	1.03	0.971	0.776	0.7	0.781	0.642	0.704	0.725	0.723	0.636	1.15	0.926	0.92	0.837	0.649	0.472	0.477	0.459
COR-L 105	1.13	0.876	1.1	0.812	0.899	0.818	0.901	0.741	0.985	0.735	0.822	0.696	1.11	0.806	0.83	0.828	0.789	0.8	0.905	0.82
ChaGo-K-1	1.12	0.934	1.03	0.957	0.592	0.591	0.623	0.598	1.31	1.08	1.08	1.06	–	–	–	–	0.79	0.726	0.751	0.679
EKVX	1.02	0.979	1.04	0.927	0.795	0.71	0.944	0.863	0.934	0.972	1.02	0.741	0.987	1.01	0.948	0.937	0.676	0.666	0.719	0.58
EMC-BAC-2	1.05	0.944	1.12	0.922	1.26	1.11	1.24	1.09	0.939	0.726	0.785	0.704	0.855	0.793	0.791	0.784	0.522	0.451	0.761	0.371
EPLC-272H	1	0.914	1.15	0.937	0.242	0.241	0.886	0.84	1.03	0.814	1.93	1.03	1.19	1.11	1.35	1.14	0.509	0.536	0.402	0.53
H3255	1.1	0.871	1.07	0.885	1.03	0.765	1	0.938	1.17	0.748	0.91	0.786	1.05	0.917	1.09	0.892	0.849	0.819	0.857	0.722
HARA	0.995	0.814	1.05	0.831	0.808	0.739	1.03	0.757	1.17	0.99	0.995	1.03	0.97	0.869	0.935	0.994	0.608	0.557	0.681	0.395
HCC-15	1.07	1.03	1.08	0.978	0.421	0.294	0.343	0.339	0.944	0.808	0.883	0.762	0.939	0.889	1	0.781	0.918	0.796	0.919	0.773
HCC-44	1.05	0.923	1.06	0.983	1.59	0.973	1.09	1.09	0.815	0.78	0.815	0.783	0.619	0.631	0.728	0.636	1.28	1.05	1.13	1.06
HCC-78	0.793	0.806	1.13	1.01	–	–	–	–	0.34	0.317	0.359	0.341	0.355	0.513	0.535	0.474	0.405	–	0.492	0.378

Cell Line	relative viability ([1]; 0.04 µM)	relative viability ([1]; 0.4 µM)	relative viability ([1]; 1.265 µM)	relative viability ([1]; 4 µM)	relative viability ([2]; first compound 0.04 µM)	relative viability ([2]; first compound 0.4 µM)	relative viability ([2]; first compound 1.265 µM)	relative viability ([2]; first compound 4 µM)	relative viability ([3]; first compound 0.04 µM)	relative viability ([3]; first compound 0.4 µM)	relative viability ([3]; first compound 1.265 µM)	relative viability ([3]; first compound 4 µM)	relative viability ([4]; first compound 0.04 µM)	relative viability ([4]; first compound 0.4 µM)	relative viability ([4]; first compound 1.265 µM)	relative viability ([4]; first compound 4 µM)	relative viability ([5]; first compound 0.04 µM)	relative viability ([5]; first compound 0.4 µM)	relative viability ([5]; first compound 1.265 µM)	relative viability ([5]; first compound 4 µM)
HCC-366	1.09	0.958	1.06	1.02	–	–	–	–	0.827	0.443	0.526	0.5	0.643	0.49	0.675	0.63	0.408	0.242	0.361	0.313
HCC-827	1.02	0.989	1.02	1.04	0.804	0.587	0.91	0.671	0.918	0.888	0.977	0.854	0.988	0.976	0.949	0.89	0.942	0.244	0.577	0.839
HOP-62	1.08	1.01	1.04	1.01	1.03	0.968	0.902	0.957	1.01	0.905	1.05	0.839	1.09	1.13	0.992	0.784	0.659	0.601	0.706	0.612
IA-LM	1.31	0.879	1.03	1	–	–	–	–	0.988	0.467	0.74	0.9	1.06	0.529	0.607	0.554	0.893	0.988	0.965	0.989
LC-2-ad	1.18	0.96	1.13	0.982	1.27	0.891	1.11	1.03	0.695	0.454	0.481	0.42	0.857	0.698	0.839	0.829	0.774	0.67	0.676	0.669
LCLC-97TM1	1.13	0.852	1.05	0.84	0.812	0.66	0.828	0.653	0.574	–	0.505	0.271	0.183	–	0.208	0.198	1.03	0.644	0.619	0.749
LCLC-103H	0.956	0.988	1.04	0.986	1.04	0.829	0.835	0.866	1.02	0.959	1.02	1	1.06	1.16	1	1.05	0.72	0.752	0.768	0.734
NCI-H522	1.24	0.896	1.05	0.901	1.29	1.14	1.18	1.29	–	–	–	–	–	–	–	–	0.937	0.858	0.952	0.947
NCI-H1395	0.862	0.84	1.03	0.816	0.63	0.788	0.675	0.738	–	–	–	–	1.12	1.4	1.19	0.99	0.651	0.621	0.811	0.683
NCI-H1563	0.943	1.05	1.02	0.934	0.513	0.571	0.535	0.511	0.931	0.903	0.868	0.88	1.24	1.31	1.21	1.09	–	–	–	–
NCI-H1650	1.07	0.895	1.16	0.915	0.225	0.207	0.216	0.178	1.28	0.995	1.01	0.893	–	–	–	–	0.715	0.541	0.604	0.561
NCI-H1703	1.2	0.997	0.996	0.768	–	–	–	–	0.865	0.554	0.726	0.508	0.893	0.765	0.738	0.305	–	–	–	–
NCI-H1792	1.03	0.836	0.883	1.18	0.401	0.383	0.56	0.408	1.04	0.713	1	0.97	0.573	0.462	0.653	0.51	–	–	–	–
NCI-H1793	0.771	0.735	1.1	0.845	0.162	0.165	0.153	0.156	–	–	–	–	0.849	0.82	0.853	0.707	0.663	0.571	0.963	0.64
NCI-H2170	1.1	0.948	1.02	0.928	0.712	0.651	0.762	0.491	1.38	1.17	1.27	1.17	–	–	–	–	0.922	0.754	0.811	0.737
NCI-H2342	0.851	0.878	1.03	1.02	0.687	0.61	0.683	0.783	–	–	–	–	–	–	–	–	0.809	0.676	0.719	0.813
SW 900	1.08	0.698	0.958	0.882	0.16	0.18	0.18	0.196	–	–	–	–	–	–	–	–	0.496	0.4	0.587	0.527
